For orientation: Kd means the concentration at which binding is half-saturated.

These results are taken from patent US7638623B2, “Galactoside inhibitors of galectins” (Forskarpatent I SYD AB, priority 2004, dated 2009).

In one experiment the target is T1, galectin-3 (Homo sapiens, UniProt P17931).
T1 construct: made in house; host or cells: Escherichia coli
Description: fluorescence polarization-based galectin-3 inhibition assay. Format: binding. Particulars: read-out: Calculated Kd. As for the experimental part: NMR-spectra were recorded with a Bruker DRX-400 instrument. Chemical shifts are given in ppm, with reference to internal residual solvent peaks. Chemical shifts and coupling constants were obtained from ^1H-NMR and proton resonances were assigned from COSY experiments. High-resolution FAB mass spectra (HRMS) were recorded with a JEOL SX-120 instrument. Fluorescence polarization experiments were performed on a PolarStar instrument (BMG, Offenburg; Germany). Column chromatography was performed on SiO2 (Matrex, 60 Å, 35-70 μm, Grace Amicon) and TLC was carried out on SiO2 60 F254 (Merck) with detection under UV light and developed with aqueous sulfuric acid. Concentrations were made using rotary evaporation with bath temperature at or below 40° C. CH2Cl2 and CH3CN were dried by distillation from CaH2.
To 100 μL of galectin-3 (1 μM) and a fluorescent probe (2-(fluorescein-5/6-yl-carbonyl)-aminoethyl 4-O-[3-O-(4-methoxylbenzyl)-β-D-galactopyranosyl]-β-D-glucopyranoside, 0.1 μM) were added inhibitor solution (3.2-80 μM, 100 μL), the plate was incubated under slow rotary shaking in the dark for 5 minutes, and fluorescence polarization measured at room temperature. The fluorescence was measured from above in 96 well microtiter plates (black polystyrene, Costar, Corning, N.Y.) using a PolarStar instrument (BMG, Offenburg; Germany). Control wells containing only fluorescent probe or fluorescein were included. All dilutions and measurements were done in PBS.

In another experiment the test system is galectins. Conditions: cited from earlier work.

T1 sequence (P17931 whole entry): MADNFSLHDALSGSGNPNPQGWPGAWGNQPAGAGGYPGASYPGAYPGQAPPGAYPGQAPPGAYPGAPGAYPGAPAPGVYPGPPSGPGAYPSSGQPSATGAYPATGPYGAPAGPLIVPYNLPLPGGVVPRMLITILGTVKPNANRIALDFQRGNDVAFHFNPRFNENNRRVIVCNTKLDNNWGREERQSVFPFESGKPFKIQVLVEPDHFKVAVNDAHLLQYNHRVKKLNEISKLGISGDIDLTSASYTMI

As to `O=C(N[C@H]1[C@@H](O)[C@@H](CO)O[C@@H](S[C@@H]2O[C@H](CO)[C@H](O)[C@H](NC(=O)c3ccccc3)[C@H]2O)[C@@H]1O)c1ccccc1` [Compound 17, Bis-(3-deoxy-3-benzamido-β-D-galactopyranosyl) sulfane], the Kd at galectin-3 was 1.44 µM.

`COc1cc(OC)cc(C(=O)NC2C(O)[C@H](S[C@@H]3OC(CO)[C@H](O)C(NC(=O)c4cc(OC)cc(OC)c4)C3O)OC(CO)[C@@H]2O)c1` (stereo partly drawn) [Compound 19, Bis-[3-deoxy-(3,5-dimethoxybenzamido)-β-D-galactopyranosyl]sulfane]: the Kd at galectin-3 was 0.02 µM.

For the molecule `O=C(N[C@H]1[C@@H](O)[C@@H](CO)O[C@@H](S[C@@H]2O[C@H](CO)[C@H](O)[C@H](NC(=O)c3ccc([N+](=O)[O-])cc3)[C@H]2O)[C@@H]1O)c1ccc([N+](=O)[O-])cc1` [Compound 20, Bis-[3-deoxy-3-(4-nitrobenzamido)-β-D-galactopyranosyl]sulfane], the Kd at galectin-3 was 0.05 µM.

With `O=C(N[C@H]1[C@@H](O)[C@@H](CO)O[C@@H](S[C@@H]2O[C@H](CO)[C@H](O)[C@H](NC(=O)c3ccc4ccccc4c3)[C@H]2O)[C@@H]1O)c1ccc2ccccc2c1` [Compound 21, Bis-[3-deoxy-3-(2-naphthamido)-β-D-galactopyranosyl]sulfane], the Kd at galectin-3 was 0.03 µM.

`CO[C@@H]1OC(CO)[C@@H](O[C@@H]2OC(CO)[C@H](O)C(O)C2O)C(O)C1NC(C)=O` (stereo partly drawn) [Compound 22, methyl β-glycoside of N-acetyllactosamine, reference compound]: the Kd on galectin-3 is 52 µM.

Regarding `O=C[C@H](O)[C@@H](O)[C@@H](O)[C@H](O)CO` [D-galactose], the “affinity, times lower than lactose” value with galectins (relative to lactose) is listed as 50-100 times.

Regarding `OC[C@H]1O[C@@H](O[C@H]2[C@H](O)[C@@H](O)C(O)O[C@@H]2CO)[C@H](O)[C@@H](O)[C@H]1O` (stereo partly shown) [lactose], the Kd on galectins (all galectins) is 500 to 1000 µM.
